Patent US8058242B2, “Chimeric proteins with natriuretic activity” (The University of Queensland, priority 2004, dated 2011)
Positions of bridges follow the written chain, without caps; N, C: chain ends. Residues, ends and D or L forms follow the SMILES beside them.

Key:
[1] = tested on: conscious normotensive rabbits; experiment: Blood pressure and heart rate in conscious normotensive rabbits, intravenous bolus of TDT analogs (Example 17); details: i.v. bolus 0.24 mg/kg; for MAP, mean difference from control: at MAP minimum
[2] = target: T1, NPR-A signaling in HeLa cells (Homo sapiens, UniProt P16066); experiment: cGMP AlphaScreen assay in HeLa cells (Examples 14, 15); assay type: cell-based; details: 30 minutes at 37° C.
T1 construct: Cyclic GMP (cGMP) elevation in HeLa cells in response to Natriuretic Peptide stimulation; endogenous in cells; host or cells: HeLa cells
T1 sequence (P16066 33-1061): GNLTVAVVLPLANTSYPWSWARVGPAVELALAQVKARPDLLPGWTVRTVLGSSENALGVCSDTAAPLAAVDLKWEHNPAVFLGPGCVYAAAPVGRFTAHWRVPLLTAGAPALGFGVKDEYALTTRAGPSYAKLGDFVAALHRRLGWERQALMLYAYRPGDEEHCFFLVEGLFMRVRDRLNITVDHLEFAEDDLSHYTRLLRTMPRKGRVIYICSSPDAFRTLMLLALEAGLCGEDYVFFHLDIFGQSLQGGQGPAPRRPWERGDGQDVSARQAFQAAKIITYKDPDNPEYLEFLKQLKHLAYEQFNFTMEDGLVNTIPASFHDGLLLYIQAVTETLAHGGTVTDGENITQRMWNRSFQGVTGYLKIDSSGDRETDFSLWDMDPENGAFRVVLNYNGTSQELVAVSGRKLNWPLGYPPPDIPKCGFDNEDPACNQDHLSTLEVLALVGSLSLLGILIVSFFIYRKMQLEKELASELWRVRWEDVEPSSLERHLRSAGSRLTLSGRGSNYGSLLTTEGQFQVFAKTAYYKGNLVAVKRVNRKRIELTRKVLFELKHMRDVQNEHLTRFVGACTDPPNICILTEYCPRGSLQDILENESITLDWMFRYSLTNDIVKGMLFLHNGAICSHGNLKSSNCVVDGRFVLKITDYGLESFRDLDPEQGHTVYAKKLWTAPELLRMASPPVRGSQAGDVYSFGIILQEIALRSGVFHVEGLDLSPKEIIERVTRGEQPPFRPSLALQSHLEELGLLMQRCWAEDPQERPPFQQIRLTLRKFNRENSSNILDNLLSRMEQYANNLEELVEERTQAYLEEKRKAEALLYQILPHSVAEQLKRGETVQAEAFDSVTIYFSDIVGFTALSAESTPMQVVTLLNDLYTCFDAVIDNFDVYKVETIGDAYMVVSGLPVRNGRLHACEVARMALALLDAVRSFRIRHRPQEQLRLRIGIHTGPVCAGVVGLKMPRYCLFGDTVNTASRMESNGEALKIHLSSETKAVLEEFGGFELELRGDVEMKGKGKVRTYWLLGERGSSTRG
Experimental: HeLa cells were maintained in RPMI cell culture medium (Gihco Invitrogen, Mt Waverley, Australia) supplemented with 10% Foetal Bovine Serum (Cambrex Bio Science, Rockland, USA). Upon reaching confluence, cells were sub-cultured such that they would be 70-90% confluent at time of assay.
Cyclic GMP (cGMP) elevation in HeLa cells in response to Natriuretic Peptide stimulation was performed using a cGMP AlphaScreen kit (PerkinElmer, Boston, USA), as follows for normal experiments: Cells were detached, pelleted to remove growth medium, and resuspended in Stimulation Buffer (Hank's Balanced Salt Solution, 0.1% Bovine Serum Albumin [BSA] (Sigma-Aldrich, Castle Hill, Australia), 1 mM 3-Isobutyl-1-methylxanthine [IBMX] (Sigma-Aldrich, Castle Hill, Australia)) and diluted to 6×10^6 cells per mL (30 000 cells per 5 μL). 5 μL of cells were added to wells of white 384-well OptiPlates (PerkinElmer, Boston, USA), and stimulated with increasing concentrations of peptide for 30 minutes at 37° C. Cells were then lysed with 10 μL Lysis buffer (dH2O, 0.3% Tween-20 (Sigma-Aldrich, Castle Hill, Australia), 5 mM HEPES (JRH Biosciences, Kansas, USA) and 0.1% BSA) and 5 μL acceptor bead mix (10 μL per mL acceptor beads and 1/3000 anti-cGMP antibody (BioVision, Mountain View, USA) in lysis buffer) added per well in the dark. Plates were incubated in the dark at room temperature for 30 minutes, then 5 μL donor bead mix (10 μL per ML donor beads and 0.3 nM biotinylated cGMP in lysis buffer) was added per well in the dark and the plate incubated overnight at room temperature. Signal was read using an EnVision plate reader (PerkinElmer, Boston, USA) and data analysed using Prism software. The cGMP standard curve was performed as per manufacturer's instructions.
To examine whether TNPc and synthetic analogs produced in the inventors' laboratory could stimulate NPR-A signaling, cGMP elevations in HeLa cells in response to these peptides were measured, as described above.

[3] = −Log10EC50 (pEC50) ± Standard Error, cGMP accumulation in HeLa cells

SMILES | HR, mean difference from control [1] | time after administration at which the MAP effect occurred, on average [1] [min] | MAP, mean difference from control [1] [mmHg] | EC50 [2, 3] [nM] | EC50 ([2]; EC50, cGMP accumulation in HeLa cells) [nM]
CC[C@H](C)[C@H](NC(=O)[C@H](CCCCN)NC(=O)[C@H](CO)NC(=O)[C@H](CC(=O)O)NC(=O)[C@@H](N)CO)C(=O)NCC(=O)N[C@@H](CC(N)=O)C(=O)NCC(=O)N[C@H]1CSSC[C@@H](C(=O)N[C@@H](CC(N)=O)C(=O)N[C@@H](CCCNC(=N)N)C(=O)N[C@H](C(=O)N[C@@H](CCSC)C(=O)N[C@@H](CCC(N)=O)C(=O)N[C@@H](CC(N)=O)C(=O)N2CCC[C@H]2C(=O)N2CCC[C@H]2C(=O)N[C@@H](CCCCN)C(=O)N[C@@H](CCCCN)C(=O)N[C@@H](Cc2ccccc2)C(=O)N[C@@H](CO)C(=O)NCC(=O)N[C@@H](CCC(=O)O)C(=O)O)[C@@H](C)CC)NC(=O)CNC(=O)[C@H](CC(C)C)NC(=O)[C@H](CC(N)=O)NC(=O)[C@H](CO)NC(=O)[C@H](C(C)C)NC(=O)[C@H](Cc2c[nH]cn2)NC(=O)[C@H](CC(N)=O)NC(=O)[C@H]([C@@H](C)CC)NC(=O)[C@H](CCCNC(=N)N)NC(=O)[C@H](CC(=O)O)NC(=O)[C@H]([C@@H](C)CC)NC(=O)[C@H](CCCCN)NC(=O)[C@H](CCCNC(=N)N)NC(=O)CNC(=O)[C@H](Cc2ccccc2)NC1=O [H12R-TDT] | −7±5 b/min | 97 | −9.2±2.2 |  | 
CC[C@H](C)[C@H](NC(=O)[C@H](CCCCN)NC(=O)[C@H](CO)NC(=O)[C@H](CC(=O)O)NC(=O)[C@@H](N)CO)C(=O)NCC(=O)N[C@@H](CC(N)=O)C(=O)NCC(=O)N[C@H]1CSSC[C@@H](C(=O)N[C@@H](CC(N)=O)C(=O)N[C@@H](CCCNC(=N)N)C(=O)N[C@H](C(=O)N[C@@H](CCSC)C(=O)N[C@@H](CCC(N)=O)C(=O)N[C@@H](CC(N)=O)C(=O)N2CCC[C@H]2C(=O)N2CCC[C@H]2C(=O)N[C@@H](CCCCN)C(=O)N[C@@H](CCCCN)C(=O)N[C@@H](Cc2ccccc2)C(=O)N[C@@H](CO)C(=O)NCC(=O)N[C@@H](CCC(=O)O)C(=O)O)[C@@H](C)CC)NC(=O)CNC(=O)[C@H](CC(C)C)NC(=O)CNC(=O)[C@H](CO)NC(=O)[C@H](C(C)C)NC(=O)[C@H](Cc2c[nH]cn2)NC(=O)[C@H](CC(N)=O)NC(=O)[C@H]([C@@H](C)CC)NC(=O)[C@H](CCCNC(=N)N)NC(=O)[C@H](CC(=O)O)NC(=O)[C@H]([C@@H](C)CC)NC(=O)[C@H](CCCCN)NC(=O)[C@H](Cc2c[nH]cn2)NC(=O)CNC(=O)[C@H](Cc2ccccc2)NC1=O [N22G-TDT] (H-SDSKIGNGCFGHKIDRINHVSGLGCNRIMQNPPKKFSGE-OH; disulfide 9-25) | little effect on HR | 140 | −17.4±7.6 | 3.14 | 
CC[C@H](C)[C@H](NC(=O)[C@H](CCCCN)NC(=O)[C@H](CO)NC(=O)[C@H](CC(=O)O)NC(=O)[C@@H](N)CO)C(=O)NCC(=O)N[C@@H](CC(N)=O)C(=O)NCC(=O)N[C@H]1CSSC[C@@H](C(=O)N[C@@H](CC(N)=O)C(=O)N[C@@H](CCCNC(=N)N)C(=O)N[C@H](C(=O)N[C@@H](CCSC)C(=O)N[C@@H](CCC(N)=O)C(=O)N[C@@H](CC(N)=O)C(=O)N2CCC[C@H]2C(=O)N2CCC[C@H]2C(=O)N[C@@H](CCCCN)C(=O)N[C@@H](CCCCN)C(=O)N[C@@H](Cc2ccccc2)C(=O)N[C@@H](CO)C(=O)NCC(=O)N[C@@H](CCC(=O)O)C(=O)O)[C@@H](C)CC)NC(=O)CNC(=O)[C@H](CC(C)C)NC(=O)[C@H](CC(N)=O)NC(=O)[C@H](CO)NC(=O)[C@H](C)NC(=O)[C@H](Cc2c[nH]cn2)NC(=O)[C@H](CC(N)=O)NC(=O)[C@H]([C@@H](C)CC)NC(=O)[C@H](CCCNC(=N)N)NC(=O)[C@H](CC(=O)O)NC(=O)[C@H]([C@@H](C)CC)NC(=O)[C@H](CCCCN)NC(=O)[C@H](Cc2c[nH]cn2)NC(=O)CNC(=O)[C@H](Cc2ccccc2)NC1=O [V20A-TDT] (H-SDSKIGNGCFGHKIDRINHASNLGCNRIMQNPPKKFSGE-OH; disulfide 9-25) |  |  |  | 382 | 455
